Laboratory results published in patent US20120004235A1, “METHODS TO TREAT CANCER” (Rutgers, The State University of New Jersey, priority 2009, published 2012).
pIC50: −log10 of the molar value.

What was measured:
[1] = tested on: Human H460 Non-Small Cell Lung Carcinoma Tumor Xenograft Model; assay: Test D xenograft, Compound 2 free base; format: in vivo, nu/nu mice; details: 1.36 mg/kg/day IV, qod × 3 for 2 cycles
Method: (§1) The anti-tumor activity of Compound 2 (free base) was evaluated against a variety of human tumor xenograft models. A summary of the studies, including tumor type, dosing and administration, growth inhibition, and major findings is presented below.

[2] = tested on: Human SK-MEL-3 Melanoma Tumor Xenograft Model; assay: Test D xenograft, Compound 2 free base; format: in vivo, nu/nu mice; details: qod × 3 for 2 cycles
Method: as §1

[3] = tested on: Human MDA-MB-231 Breast Tumor Xenograft Model; assay: Test D xenograft, Compound 2 free base; details: qod × 3 for 2 cycles
[4] = tested on: Human DLD-1 Colon Tumor Xenograft Model; assay: Test D xenograft, Compound 2 free base; format: in vivo, nu/nu mice
[5] = tested on: KBH5.0 BCRP+ KB3-1 Subline; assay: Human tumor cell CFU assay (Test B); format: cell-based; details: Homo sapiens, KB 3-1, colony formation, continuous exposure 7-9 days
Method: (§2) For human tumor cell CFU assays, the cell lines which grow as monolayers, MDA-MB-231, HCT116, HT29, NCI-H460, KB3-1 and KBV-1 were grown in RPMI medium (Invitrogen/Gibco, Grand Island, N.Y.) supplemented with 5% fetal bovine serum (Invitrogen/Gibco, Grand Island, NY). The RPMI-8226 cell line grows in suspension.
(§3) For experiments, human tumor cells (1 103) were plated in 6-well plates in medium supplemented with 5% or 10% fetal bovine serum. The compounds were tested in concentrations over the range from 0.01 to 100 nanomolar in half-log intervals covering […] along with untreated control wells. In later experiments some cases the concentration ranges were refined to focus on the region of interest in the response curves. Each compound concentration was tested in duplicate wells. Cultures were exposed to the compounds continuously for 7-9 days at 37° C. in a humidified atmosphere of 5% carbon dioxide balance air. Each experiment was performed three independent times. Colonies were defined as clusters containing 30 or more cells.
(§4) For the monolayer cultures, colonies were visualized by staining with a preformulated crystal violet solution (Fisher Cat #291-472) which contained 0.41% crystal violet, 12% ethanol balance deionized water. To visualize the colonies, the medium was removed by aspiration; the monolayer was rinsed once with phosphate buffered saline which was removed by aspiration. Three drops of crystal violet solution was added to each well and the 6-well plate was rotated so that the crystal violet solution covered the surface area of each well. After 5 minutes exposure time, the wells were rinsed twice with phosphate buffered saline and the colonies were visible.
(§5) The values were expressed as the mean values with lower and upper 95% confidence intervals in nanomolar concentrations.

[6] = tested on: HT29 Human Colon Carcinoma; assay: Human tumor cell CFU assay (Test B); format: cell-based; details: Homo sapiens, HT-29, colony formation, continuous exposure 7-9 days
Method: as §2, §3, §4, §5

[7] = tested on: Human 786-0 Renal Cell Tumor Xenograft Model; assay: Test D xenograft, Compound 2 free base; format: in vivo, nu/nu mice; details: qod × 3 for 2 cycles
[8] = In vivo pharmacokinetics (Example 22); details: in vivo in mouse, rat and dog
Method: (§6) The in vitro and in vivo activity of compound 2 and two of its metabolites (compound 5 and compound 6) were explored and compared with the activity of camptothecin Top1 inhibitors. […] In human HCT-116 colon ca, HT-29 colon ca and NCI-H460 NSCLC cells the concentration response for compound 2, compound 5 and compound 6 were the same. […] Compound 2 was administered intravenously on a QODx3 schedule for 2 cycles.

[9] = Body weight loss across the Example 22 xenograft studies; format: in vivo, mice; details: all dosages IV QODx3 for 2 cycles, except the high dosages in HCT-15 and NCI-H292
Method: as §6

[10] = tested on: RPMI 8226 (multiple myeloma) human tumor cell line; assay: Cell TiterGlo cell growth inhibition (Test C); format: cell-based; details: 72 hours exposure, ATP content luminescence
Method: The RPMI 8226 (multiple myeloma) human tumor cell line was exposed to Compound 2 (free base) (or simply referred to herein throughout as “Compound 2”) at concentrations covering a […] (0.1 nM -100 nM) with an exposure time of 72 hours and experimental endpoint of cell growth inhibition as determined by a Cell TiterGlo luminescence assay (Promega) for ATP content. At least two independent experiments were conducted. The results were plotted and trend lines were graphed. […] Exposure to Compound 2 produced exponential killing of cells in a manner consistent with potent inhibition of a critical molecular target.

[11] = tested on: Human NCI-H292 Lung Tumor Xenograft Model; assay: Test D xenograft, Compound 2 free base; details: for Increase in Life Span (ILS) / Tumor Growth Delay T-C / Tumor Growth Inhibition T/C (tumor volume): qod × 3 for 2 cycles
[12] = tested on: RPMI-8226 Human Multiple Myeloma; assay: Human tumor cell CFU assay (Test B); format: cell-based; details: Homo sapiens, RPMI-8226; colony formation in agar, continuous exposure 7-9 days
Method: as §2
For human tumor cell CFU assays, RPMI-8226 cells were grown in 0.35% agar in DMEM-F12 medium supplemented with 10% fetal bovine serum over a base layer of 0.5% agar in DMEM-F12 medium supplemented with 10% fetal bovine serum
as §3, §5

[13] = 1 mg/kg/day IV, qod × 3 for 2 cycles
[14] = 4 mg/kg/day IV/QODx3 for 2 cycles
[15] = read-out: IC50 Values (95% Lower and Upper Confidence Intervals)

In the case of CNCCn1c(=O)c2cc(OC)c(OC)cc2c2cnc3cc4c(cc3c21)OCO4 [Compound 2, 8,9-dimethoxy-2,3-methylenedioxy-5-[2-(N-methylamino)ethyl]-5H-dibenzo[c,h]1,6-naphthyridin-6-one], the “Increase in Life Span (ILS)” value [1] was 1.8x, the “Tumor Growth Delay T-C” value [1] was 21 days and the “Tumor Growth Inhibition T/C (tumor volume)” value (from here on “Tumor Growth Inhibition T/C”) [1] was 14.1%. The “Increase in Life Span (ILS)” value ([2]; 1 mg/kg/day IV) was 1.5x, the “Tumor Growth Delay T-C” value ([2]; 1 mg/kg/day IV) was 15 days and the “Tumor Growth Inhibition T/C” value ([2]; 1 mg/kg/day IV) was 22.0%. For the same compound, the “Increase in Life Span (ILS)” value ([2]; 1.36 mg/kg/day IV) was 2.3x, the “Tumor Growth Delay T-C” value ([2]; 1.36 mg/kg/day IV) was 35 days and the “Tumor Growth Inhibition T/C” value ([2]; 1.36 mg/kg/day IV) was 13.4%. The “Increase in Life Span (ILS)” value ([2]; 1.7 mg/kg/day IV) was 1.9x, the “Tumor Growth Delay T-C” value ([2]; 1.7 mg/kg/day IV) was 26 days and the “Tumor Growth Inhibition T/C” value ([2]; 1.7 mg/kg/day IV) was 16.7%. For the same compound, the “Increase in Life Span (ILS)” value ([3]; 1 mg/kg/day IV) was 1.7x, the “Tumor Growth Delay T-C” value ([3]; 1 mg/kg/day IV) was 21 days and the “Tumor Growth Inhibition T/C” value ([3]; 1 mg/kg/day IV) was 30.7%. For the same compound, the “Increase in Life Span (ILS)” value ([3]; 1.36 mg/kg/day IV) was >2.3x, the “Tumor Growth Delay T-C” value ([3]; 1.36 mg/kg/day IV) was >47 days and the “Tumor Growth Inhibition T/C” value ([3]; 1.36 mg/kg/day IV) was 8.6%. For the same compound, the “Increase in Life Span (ILS)” value ([3]; 1.7 mg/kg/day IV) was 2.0x, the “Tumor Growth Delay T-C” value ([3]; 1.7 mg/kg/day IV) was 35 days and the “Tumor Growth Inhibition T/C” value ([3]; 1.7 mg/kg/day IV) was 17.7%. The “Increase in Life Span (ILS)” value [4, 13] was 1.2x, the “Tumor Growth Delay T-C” value [4, 13] was 8 days and the “Tumor Growth Inhibition T/C” value [4, 13] was 51.3%. For the same compound, the “ILS (T/C)” value [4, 14] was 1.2x, the “TGD (T-C)” value [4, 14] was 8 days and the IC90 [5] was 3 nM. It also gave a pIC50 [5, 15] of 9.00, a pIC50 [6, 15] of 9.82 and an IC90 ([6]; read-out: IC90 Values (95% Lower and Upper Confidence Intervals)) of 0.9 nM. For the same compound, the “Increase in Life Span (ILS)” value ([7]; 1 mg/kg/day IV) was 1.2x, the “Tumor Growth Delay T-C” value ([7]; 1 mg/kg/day IV) was 10 days and the “Tumor Growth Inhibition T/C” value ([7]; 1 mg/kg/day IV) was 52.5%. For the same compound, the “Increase in Life Span (ILS)” value ([7]; 1.36 mg/kg/day IV) was 1.2x, the “Tumor Growth Delay T-C” value ([7]; 1.36 mg/kg/day IV) was 10 days and the “Tumor Growth Inhibition T/C” value ([7]; 1.36 mg/kg/day IV) was 52.2%. For the same compound, the “Increase in Life Span (ILS)” value ([7]; 1.7 mg/kg/day IV) was 1.4x, the “Tumor Growth Delay T-C” value ([7]; 1.7 mg/kg/day IV) was 17 days and the “Tumor Growth Inhibition T/C” value ([7]; 1.7 mg/kg/day IV) was 25.9%. The clearance [8] was “low-to-moderate clearance”, the volume of distribution [8] was “large volume of distribution” and the “maximum body weight loss” value [9] was ≤ 20%. The pIC50 ([10]; read-out: IC50 concentration) was 8.47, the IC90 ([10]; read-out: IC90 concentration) was 30 nM and the “Increase in Life Span (ILS)” value ([11]; 1 mg/kg/day IV) was 1.5x. The “Tumor Growth Delay T-C” value ([11]; 1 mg/kg/day IV) was 18 days, the “Tumor Growth Inhibition T/C” value ([11]; 1 mg/kg/day IV) was 29.4% and the “Increase in Life Span (ILS)” value ([11]; 1.36 mg/kg/day IV) was 1.6x. For the same compound, the “Tumor Growth Delay T-C” value ([11]; 1.36 mg/kg/day IV) was 21 days, the “Tumor Growth Inhibition T/C” value ([11]; 1.36 mg/kg/day IV) was 25.2% and the “Increase in Life Span (ILS)” value ([11]; 1.7 mg/kg/day IV) was 1.6x. For the same compound, the “Tumor Growth Delay T-C” value ([11]; 1.7 mg/kg/day IV) was 21 days, the “Tumor Growth Inhibition T/C” value ([11]; 1.7 mg/kg/day IV) was 15.2% and the “maximum body weight loss” value ([11]; high dosage, IV QODx3 for 2 cycles) was 20.9%. The pIC50 [12] was 9.70 and the IC90 [12] was 0.8 nM.
